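The compound was tested at five concentrations on cells cultured in 96-well plates, with a 48-hour exposure period. GI50 = concentration required for 50% inhibition of growth.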 Active and inactive are the calls of the source. Rule as the data show it: active = GI50 up to about 1.1 µM and inactive = higher. Residues, ends and D or L forms follow the SMILES beside them. *: point of attachment. OBn = c1ccc(CO*)cc1
Legend:
Assay in all cases: NCI anticancer screen, dose series, 48 h
NCI-H522 = system: NCI-H522
CCRF-CEM = system: CCRF-CEM
SNB-19 = system: SNB-19
NCI-H23 = system: NCI-H23
KM12 = system: KM12
U-251 = system: U-251
MOLT-4 = system: MOLT-4
SNB-75 = system: SNB-75
UACC-257 = system: UACC-257
A549 = system: A549
MDA-MB-435 = system: MDA-MB-435
K562 = system: K562
SK-MEL-28 = system: SK-MEL-28
ACHN = system: ACHN
IGROV-1 = system: IGROV-1
SN12C = system: SN12C
HL-60 = system: HL-60
NCI/ADR-RES = system: NCI/ADR-RES
HOP-62 = system: HOP-62
Malme-3M = system: Malme-3M
OVCAR-3 = system: OVCAR-3
OVCAR-5 = system: OVCAR-5
HCC 2998 = system: HCC 2998
MDA-MB-231 = system: MDA-MB-231
786-0 = system: 786-0
NCI-H226 = system: NCI-H226
MCF7 = system: MCF7
TK-10 = system: TK-10
Hs-578T = system: Hs-578T
MDA-N = system: MDA-N
DU-145 = system: DU-145
SK-MEL-5 = system: SK-MEL-5
SW-620 = system: SW-620
PC-3 = system: PC-3
SK-OV-3 = system: SK-OV-3
SF-268 = system: SF-268
UACC-62 = system: UACC-62
RPMI-8226 = system: RPMI-8226
SK-MEL-2 = system: SK-MEL-2
SR = system: SR
COLO 205 = system: COLO 205
CAKI-1 = system: CAKI-1
T47D = system: T47D
OVCAR-8 = system: OVCAR-8
LOX IMVI = system: LOX IMVI
M14 = system: M14
HCT-116 = system: HCT-116
EKVX = system: EKVX
SF-295 = system: SF-295
UO-31 = system: UO-31
BT-549 = system: BT-549
HCT-15 = system: HCT-15
SF-539 = system: SF-539
OVCAR-4 = system: OVCAR-4
HOP-92 = system: HOP-92
HT-29 = system: HT-29
RXF 393 = system: RXF 393
NCI-H460 = system: NCI-H460
A498 = system: A498

Measured: GI50

CC(=O)On1c(-c2ccccc2-c2nc3ccccc3n2OC(C)=O)nc2ccccc21
inactive: NCI-H522 18.5 µM | CCRF-CEM 41.3 µM | SNB-19 60.5 µM | NCI-H23 7.48 µM | KM12 22.5 µM | U-251 12.8 µM | MOLT-4 11.3 µM | SNB-75 35.2 µM | UACC-257 12.5 µM | A549 41.3 µM | MDA-MB-435 16.2 µM | K562 13.9 µM | SK-MEL-28 29.3 µM | ACHN 61.8 µM | IGROV-1 22.1 µM | SN12C 39.6 µM | HL-60 14.7 µM | NCI/ADR-RES 79.3 µM | HOP-62 97.9 µM | Malme-3M 15.1 µM | OVCAR-3 24.3 µM | OVCAR-5 > 100 µM | HCC 2998 33.4 µM | MDA-MB-231 42.8 µM | 786-0 46.6 µM | NCI-H226 25.9 µM | MCF7 26.7 µM | TK-10 68.1 µM | Hs-578T 37.8 µM | MDA-N 21 µM | DU-145 49.7 µM | SK-MEL-5 3.4 µM | SW-620 34.4 µM | PC-3 4.43 µM | SK-OV-3 55.1 µM | SF-268 23 µM | UACC-62 21 µM | RPMI-8226 7.82 µM | SK-MEL-2 22.4 µM | SR 19.1 µM | COLO 205 16.7 µM | CAKI-1 > 100 µM | T47D 17.7 µM | OVCAR-8 36.5 µM | LOX IMVI 18.5 µM | M14 33.8 µM | HCT-116 25 µM | EKVX > 10 µM | SF-295 44.7 µM | UO-31 74.6 µM | BT-549 30.3 µM | SF-539 42.7 µM
67.5 µM: HCT-15

NC(CCC(=O)OCc1ccccc1)C(=O)NC(CCC(=O)OCc1ccccc1)C(=O)O (stereo not drawn) (H-Glu(OBn)-Glu(OBn)-OH; configuration not given here)
inactive: NCI-H522 > 100 µM | CCRF-CEM > 100 µM | SNB-19 > 100 µM | NCI-H23 > 100 µM | KM12 > 100 µM | U-251 > 100 µM | MOLT-4 > 100 µM | SNB-75 > 100 µM | A549 > 100 µM | MDA-MB-435 > 100 µM | K562 > 100 µM | SK-MEL-28 > 100 µM | ACHN > 100 µM | IGROV-1 > 100 µM | SN12C > 100 µM | HL-60 > 100 µM | NCI/ADR-RES > 100 µM | HOP-62 > 100 µM | Malme-3M > 100 µM | OVCAR-3 > 100 µM | OVCAR-5 > 100 µM | HCC 2998 > 100 µM | MDA-MB-231 > 100 µM | 786-0 > 100 µM | NCI-H226 > 100 µM | OVCAR-4 > 100 µM | MCF7 > 100 µM | TK-10 > 100 µM | Hs-578T > 100 µM | MDA-N > 100 µM | DU-145 > 100 µM | SK-MEL-5 > 100 µM | HOP-92 > 100 µM | SW-620 > 100 µM | PC-3 > 100 µM | SK-OV-3 > 100 µM | SF-268 > 100 µM | UACC-62 > 100 µM | RPMI-8226 > 100 µM | HT-29 > 100 µM | SR > 100 µM | COLO 205 > 100 µM | CAKI-1 > 100 µM | T47D > 100 µM | OVCAR-8 > 100 µM | LOX IMVI > 100 µM | RXF 393 > 100 µM | M14 > 100 µM | HCT-116 > 100 µM | EKVX > 100 µM | SF-295 > 100 µM | UO-31 > 100 µM | BT-549 > 100 µM | NCI-H460 > 100 µM
> 100 µM: HCT-15

Cc1ccc(O)c(C2=NNC(c3cccc(Cl)c3)C2)c1 (stereo not drawn)
inactive: NCI-H522 16 µM | CCRF-CEM 31.8 µM | SNB-19 14.4 µM | NCI-H23 50.1 µM | KM12 20.6 µM | U-251 33.9 µM | MOLT-4 34 µM | UACC-257 35 µM | A549 34.8 µM | MDA-MB-435 19 µM | K562 36.4 µM | ACHN 30.1 µM | IGROV-1 5.69 µM | SN12C 37.2 µM | HL-60 41.7 µM | NCI/ADR-RES 34.5 µM | HOP-62 79.8 µM | Malme-3M 37.8 µM | OVCAR-3 51.5 µM | OVCAR-5 > 100 µM | MDA-MB-231 61.5 µM | 786-0 72.8 µM | NCI-H226 57.1 µM | OVCAR-4 24.4 µM | MCF7 23.2 µM | TK-10 58.3 µM | Hs-578T 30.5 µM | MDA-N 28.3 µM | DU-145 86.1 µM | SK-MEL-5 54 µM | HOP-92 18.5 µM | SW-620 48 µM | PC-3 32.3 µM | SK-OV-3 35.9 µM | SF-268 32.9 µM | UACC-62 39.7 µM | RPMI-8226 25.1 µM | HT-29 54.8 µM | SK-MEL-2 30 µM | SR 28.9 µM | COLO 205 > 100 µM | CAKI-1 36.8 µM | T47D 41.4 µM | OVCAR-8 56.2 µM | LOX IMVI 31.6 µM | RXF 393 19.4 µM | M14 87.5 µM | HCT-116 34 µM | EKVX 37 µM | SF-295 66.4 µM | UO-31 28.1 µM | BT-549 > 100 µM | SF-539 66.5 µM | NCI-H460 19.6 µM
8.09 µM: HCT-15

Cc1ccc(C)c2c1n1c(=O)n(C)c(=O)n21
> 100 µM: HCT-15
inactive: NCI-H522 > 100 µM | CCRF-CEM > 100 µM | SNB-19 > 100 µM | NCI-H23 > 100 µM | KM12 > 100 µM | U-251 > 100 µM | SNB-75 > 100 µM | UACC-257 > 100 µM | A549 > 100 µM | MDA-MB-435 > 100 µM | SK-MEL-28 > 100 µM | ACHN > 100 µM | IGROV-1 > 100 µM | SN12C > 100 µM | HL-60 > 100 µM | NCI/ADR-RES > 100 µM | Malme-3M > 100 µM | OVCAR-3 > 100 µM | OVCAR-5 > 100 µM | HCC 2998 > 100 µM | MDA-MB-231 > 100 µM | 786-0 > 100 µM | NCI-H226 > 100 µM | OVCAR-4 > 100 µM | MCF7 > 100 µM | TK-10 > 100 µM | Hs-578T > 100 µM | MDA-N > 100 µM | DU-145 > 100 µM | SK-MEL-5 > 100 µM | HOP-92 > 100 µM | SW-620 > 100 µM | PC-3 > 100 µM | SK-OV-3 > 100 µM | SF-268 > 100 µM | UACC-62 > 100 µM | RPMI-8226 > 100 µM | HT-29 > 100 µM | SK-MEL-2 > 100 µM | COLO 205 > 100 µM | CAKI-1 > 100 µM | T47D > 100 µM | OVCAR-8 > 100 µM | LOX IMVI > 100 µM | A498 > 100 µM | RXF 393 > 100 µM | M14 > 100 µM | HCT-116 > 100 µM | EKVX > 100 µM | SF-295 > 100 µM | UO-31 > 100 µM | BT-549 > 100 µM | SF-539 > 100 µM | NCI-H460 > 100 µM

Source: ChEMBL document CHEMBL1201862, “PubChem BioAssay data set” (2004)
